Legend:
Format in all cases: cell-based
[1] = tested on: MCF-10A acini; assay: [H2O2]i by Hyper-2 in MCF-10A 3D acini
Description: For the measurement of [H2O2]i levels in MCF-10A acini and HCC1569 spheroids, cells were transduced with a lentiviral vector encoding Hyper-2 or Hyper-2 (C199S). The Hyper-2 fluorescence was measured at 37° C. in HEPES-buffered saline (HBS) containing the following (in mM): 150 NaCl, 6 KCl, 1.2 MgSO4, 2 CaCl2, 11.5 glucose, and 25 HEPES (pH adjusted to 7.4 with NaOH). Fluorescence images of the cells were acquired through the Eclipse Ti-E microscope (Nikon) with ORCA-R2 cooled CCD camera (Hamamatsu Photonics) and analyzed with Metafluor image acquisition software (Molecular Devices). The 488:405-nm ratio images were obtained on a pixel-by-pixel basis. 3D images are shown as one section from midstructure. For the measurement of [H2O2]i levels in MCF-10A cells cultured in suspension, cell clumps were dissociated with trypsin and stained with 10 μM peroxy green-1 for 30 min at 37° C. Cells were then subjected to flow cytometric analysis (FACSCalibur; BD Biosciences). ROS levels determined by flow cytometry are reported as mean fluorescence intensity expressed in arbitrary units. Hyper-2 ratio images are representative from two independent experiments and averaged Hyper-2 ratio represents mean±SD from the sum of two independent experiments.

[2] = tested on: HCC1569 cells; assay: Soft agar anchorage-independent growth of HCC1569 cells
Description: Cells were added to the regular MCF-10A or HCC1569 growth media (±AP-18, A-967079, or Trolox) plus 0.4% low-melt agarose (Sigma) and layered onto a bed of growth media plus 0.5% low-melt agarose. Cells were fed every 4 days with growth media (±AP-18, A-967079, or Trolox) plus 0.4% low-melt agarose. At the indicated times, viable colonies were stained with iodonitrotetrazolium chloride (Sigma). Colony number and colony size were determined using ImageJ. Images shown are representative of at least three independent experiments.

[3] = tested on: HCC1569 cells; assay: Live cell number and cell death under carboplatin in HCC1569 cells; conditions: carboplatin 72 h
Description: (§1) For the measurements of live cell number and cell death under treatment with H2O2, diamide, or chemotherapies, cells were cultured on 96-well plates in the presence or absence of these drugs for indicated times and stained with 5 μM bisBenzimide H 33342 trihydrochloride (Hoechst; Sigma) and 5 μM propidium iodide (PI; Sigma) for 1 h at 37° C. Hoechst- and/or PI-positive cells were counted using a laser scanning cytometer, Acumen Cellista (TTPLabTech). Apoptotic cells induced by H2O2 treatment were measured by staining with Annexin V-Alexa Fluor® 488 conjugate (Life Technologies) and PI in Ca^2+-containing solution (10 mM HEPES pH 7.4, 140 mM NaCl; 2.5 mM CaCl2), followed by flow cytometric measurement of fluorescence using a FACSCalibur. Flow cytometry plots are representative of three independent experiments. For the counting of viable cells cultured in suspension, cell clumps were dissociated with trypsin and stained with trypan blue. Viable cells were counted using the Countless Automated Cell Counters (Thermo Fisher Scientific). For the measurement of percentage of dead cells cultured in suspension, cells were cultured on poly HEMA-coated 96-well plates and stained with 5 μM Hoechst and 5 μM PI for 1 h at 37° C. without enzymatic dissociation of cell clumps. Hoechst- and/or PI-positive areas were measured using Acumen Cellista. Apoptotic cells induced by detachment were measured by staining with 5 μM Hoechst and 5 μM of CellEvent™ Caspase-3/7 Green Detection Reagent (Thermo Fisher Scientific) for 1 h at 37° C. without enzymatic dissociation of cell clumps. Hoechst- and/or CellEvent™ Caspase-3/7 Green Detection Reagent-positive areas were measured using Acumen Cellista. For the cell cycle analysis, enzymatically dissociated cells were fixed with ice-cold 70% EtOH for at least 30 min at 4° C., washed three times with PBS at 4° C., resuspended in PBS, treated with 100 μg/ml RNase A (Sigma), and stained with 50 μg/ml PI. The stained samples were subjected to flow cytometric analysis (FACSCalibur).

[4] = tested on: HCC1500; assay: Live cell number under carboplatin in HCC1500 cells; conditions: 10 μM AP-18; carboplatin 72 h; HCC1500, very low TRPA1
Description: as §1, with “For the counting of viable cells cultured in suspension, cell clumps were dissociated with trypsin and stained with trypan blue.” left out, “For the measurement of percentage of dead cells cultured in suspension, cells were cultured on poly HEMA-coated 96-well plates and stained with 5 μM Hoechst and 5 μM PI for 1 h at 37° C. without enzymatic dissociation of cell clumps.” left out, “For the cell cycle analysis, enzymatically dissociated cells were fixed with ice-cold 70% EtOH for at least 30 min at 4° C., washed three times with PBS at 4° C., resuspended in PBS, treated with 100 μg/ml RNase A (Sigma), and stained with 50 μg/ml PI. The stained samples were subjected to flow cytometric analysis (FACSCalibur).” left out

[5] = target: T1, TRPA1 (Homo sapiens, UniProt O75762); assay: AITC-evoked [Ca2+]i rises in TRPA1-enriched NSCLC cells; conditions: 10 μM AP-18, 30 μM AITC
T1 construct: endogenous in cells; host or cells: HCC1569 breast cancer cells (2D culture or 3D spheroids; shGFP or shTRPA1 transduced)
Description: (§2) For the measurement of [Ca^2+]i levels in cells cultured in 2D or 3D (in Matrigel), cells were stained with 3.5 μM fura-2-AM (Life Technology) in the presence of 2.5 mM probenecid (Sigma) and 0.02% Pluronic F-127 (Sigma) for 45 min at 37° C. The fura-2 fluorescence was measured in HBS solution containing 1.25 mM probenecid at 37° C. Fluorescence images of the cells were acquired through the Eclipse Ti-E microscope with ORCA-R2 cooled CCD camera and analyzed with Metafluor. The 340:380-nm ratio images were obtained on a pixel-by-pixel basis and were converted to Ca^2+ concentrations by in vivo calibration using 5 μM ionomycin as described previously (Nishida et al., Biochem. Biophys. Res. Commun., 262:350-354, 1999). 3D images are shown as one section from midstructure. For the measurement of [Ca^2+]i levels in cells cultured in suspension, cell clumps were dissociated with trypsin and [Ca^2+]i levels were determined by using Fluo-4 NW Calcium Assay Kit (Molecular Probes). Cells were stained with Fluo-4 according to the manufacturer's instructions and subjected to flow cytometric analysis (FACSCalibur) using HBS as sheath fluid. [Ca^2+]i levels determined by flow cytometry are reported as mean fluorescence intensity expressed in arbitrary units. […]

[6] = target: T1, TRPA1; assay: AITC-evoked [Ca2+]i rises in TRPA1-enriched MPNST cells; conditions: 10 μM AP-18, 30 μM AITC
Description: as §2

[7] = tested on: NSCLC cells; assay: H2O2- and carboplatin-induced cytotoxicity in NSCLC cells; conditions: TRPA1 expression-dependent
Description: as §1, with “For the counting of viable cells cultured in suspension, cell clumps were dissociated with trypsin and stained with trypan blue.” left out, “For the measurement of percentage of dead cells cultured in suspension, cells were cultured on poly HEMA-coated 96-well plates and stained with 5 μM Hoechst and 5 μM PI for 1 h at 37° C. without enzymatic dissociation of cell clumps.” left out, “For the cell cycle analysis, enzymatically dissociated cells were fixed with ice-cold 70% EtOH for at least 30 min at 4° C., washed three times with PBS at 4° C., resuspended in PBS, treated with 100 μg/ml RNase A (Sigma), and stained with 50 μg/ml PI. The stained samples were subjected to flow cytometric analysis (FACSCalibur).” left out

T1 sequence (O75762 whole entry): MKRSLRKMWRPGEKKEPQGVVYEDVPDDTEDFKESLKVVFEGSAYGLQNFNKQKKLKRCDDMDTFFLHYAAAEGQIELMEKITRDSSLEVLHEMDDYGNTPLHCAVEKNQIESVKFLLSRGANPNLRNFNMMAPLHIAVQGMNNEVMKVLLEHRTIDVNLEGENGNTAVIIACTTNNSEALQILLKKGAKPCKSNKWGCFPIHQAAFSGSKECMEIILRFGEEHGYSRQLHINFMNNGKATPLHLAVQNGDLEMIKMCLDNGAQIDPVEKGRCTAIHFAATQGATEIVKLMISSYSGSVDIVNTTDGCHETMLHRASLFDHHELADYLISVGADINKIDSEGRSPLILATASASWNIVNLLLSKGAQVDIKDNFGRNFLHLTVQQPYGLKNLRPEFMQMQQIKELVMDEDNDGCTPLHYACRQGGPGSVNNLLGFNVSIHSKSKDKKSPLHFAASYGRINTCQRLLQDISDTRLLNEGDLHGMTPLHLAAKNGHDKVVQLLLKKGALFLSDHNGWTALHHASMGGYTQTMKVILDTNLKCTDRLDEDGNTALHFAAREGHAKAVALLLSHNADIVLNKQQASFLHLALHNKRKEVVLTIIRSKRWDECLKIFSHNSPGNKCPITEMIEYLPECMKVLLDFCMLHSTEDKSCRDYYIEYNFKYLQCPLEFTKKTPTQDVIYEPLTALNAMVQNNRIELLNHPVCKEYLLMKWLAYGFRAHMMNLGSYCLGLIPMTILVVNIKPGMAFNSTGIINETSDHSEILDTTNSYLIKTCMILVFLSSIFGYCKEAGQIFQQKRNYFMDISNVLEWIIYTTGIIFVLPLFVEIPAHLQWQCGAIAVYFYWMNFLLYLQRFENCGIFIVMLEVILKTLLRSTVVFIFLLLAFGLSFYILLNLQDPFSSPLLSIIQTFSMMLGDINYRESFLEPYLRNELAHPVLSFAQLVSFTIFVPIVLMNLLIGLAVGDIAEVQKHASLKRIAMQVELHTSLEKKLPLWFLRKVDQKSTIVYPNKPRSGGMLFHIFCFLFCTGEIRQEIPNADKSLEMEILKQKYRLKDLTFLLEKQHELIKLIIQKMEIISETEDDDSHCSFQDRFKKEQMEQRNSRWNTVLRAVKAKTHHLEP

AP-18
increase in [H2O2]i (Hyper-2) in inner ECM-deprived cells [1]: unaffected | anchorage-independent growth (number and average size of colonies) [2]: impaired | cell death in response to carboplatin treatment [3]: enhanced | live cell number in response to carboplatin treatment [3]: substantially suppressed | sensitization to carboplatin [4]: minimal to no effect | inhibition of AITC-induced [Ca2+]i rises [5]: abolished | inhibition of AITC-induced [Ca2+]i rises [6]: abolished | sensitization to carboplatin-induced cytotoxicity ([7]; 10 μM AP-18, carboplatin 72 h): sensitized | sensitization to H2O2-induced cytotoxicity [7]: sensitized
